The record followed here is patent US20240336567A1, “PESTICIDAL AND HERBICIDAL COMPOUNDS AND METHODS OF USE THEREOF” (AG Plenus Ltd, priority 2021, published 2024).

Like-named read-outs stand apart in the source and are kept apart here.

Assay [1] is described as follows: in vitro thermal shift (binding of compound to the target). The settings on record: thermal shift caused by binding of the compound to the (unnamed) target.
The test system of another assay is SETVI. Put plainly: In-planta LTP pre-emergence, visual phenotype. It counts as in vivo, Setaria viridis. Particulars: monocot; for pest or weed control at 2000 g/ha: Setaria viridis, 432 h. How it is done:
(§1) A basic panel of 8 weed species (Table 3) were sowed in 4×4×7 cm plastic pots containing inert sand (Sweet sand), intensively washed using osmosis water. Each specie was sowed in a separate pot. In each pot 10-15 seeds were sowed according to the specie viability. Sowing was performed one day before application. The plants were grown for 21 days in a controlled greenhouse (26±2° C. day 20±2° C. night). Hood irrigation (tap water+Shefer 5:3:8 8 mM) was given at a 50% water content by weight. Compounds were soluble in water (DDW), and commercial herbicide control was soluble in formulation B (Table 4). Application was conducted with an industrial sprayer (TeeJet 6502E nozzle) at a rate of 2 kg/ha and spray volume of […]. Pre-emergence advanced dose response experiment application was conducted at six rates between 1-0.0312 kg/ha and spray volume of […]. Percentage of emergence was evaluated at 15 DAA. Visual phenotyping was recorded using a scale of 0-6 (0: no visible effect, 6: maximum effect) at 18 DAA. All experiments included an untreated control, a solvent control and a positive control (commercial herbicide A.I.). Statistical analysis for visual phenotyping determined by a median value of ≥3.5 and Fisher test (pval≤0.05). Statistical analysis for plant emergence determined by % emergence ≥50 and T test (pval≤0.05), as well as Wilcox test (pval≤0.05).

The subject of assay [2] is AMAPA. Put plainly: In-planta LTP pre-emergence, visual phenotype. It is filed as in vivo, Amaranthus palmeri. Particulars: Amaranthus palmeri, 432 h, dicot, read-out: IG Inhibited growth (% effect). How it is done: as §1
For assay [3], the system named is Arabidopsis thaliana. Put plainly: HTPS - Dicot - Pre-emergence. Particulars: N/A: not active; for Emax: read-out: HTPS - Dicot - Pre Max effect. It is filed as in vivo. How it is done: (§2) Arabidopsis thaliana seeds were sown in 96 well plates filled with irrigated Sweet sand (10%>clay) that is washed from salts and minerals using tap water. 5-10 seeds were sown in the center of each well. 7-8 days post sowing, at 2 true leaves stage, thinning out was performed to ensure that compound application is done on a single plant per well. The plates were placed in a controlled greenhouse in a random order inside a bath which allows flooding irrigation with tap water supplemented with a fertilizer. Applied compounds were dissolved into a final solution of 50% acetone, 49.9% DDW, 0.1% tween-20. A 96 well plate was used as a stock plate for preparing application solutions for 8 repeats. Each row contained different concentrations per chemical. Maximal concentration for application was 1.5 Kg/Ha and dilution factor is 2.5. Chemical application was performed one day after thinning out in a chemical hood. 5 μL applied on first two true leaves in each well using 12 channel pipettes. Data collection: RGB (red, green, blue) data for green area per well was documented using camera. Data is collected at a few time points during the experiment: one day after thinning and before chemical application, two-, six- or nine-days post application. During the last two documentations, visual phenotyping was performed. Data analysis: Given RGB results and visual phenotype scores, a student t-test conducted to compare between treatment and control performance for continuous data (RGB) and Fisher exact test to analyze the non-continuous data (phenotypic scores). Dose-Response curves are generated for each treatment to infer ED50 and max. inhibition parameters, using treatment's log concentration range as the […] variable and normalized green area. These experiments are conducted similarly except that either Arabidopsis thaliana or Eragrostis teff seeds were sowed (5-10 or 5-7, respectively), plant thinning out was not performed, compound dissolved into a final solution of 50% acetone, 49.9% DDW, compound application was done at 30 μL volume per well directly on sowed soil before plant emergence and data was collected 10 or 7 days after chemical application on dicot or monocot plants, respectively. Plate imaging performed at 11 and 18 DAA. RGB data for green area per well was documented and used to extract % inhibition. Dose-Response curves were built for each treatment to infer ED50, ED75 and ED90 parameters, using treatment's log concentration range as the independent variable and normalized green area as the dependent variable. Treatments were compared to controls performance given RGB results and using student's t-test (p-val≤0.05).

In assay [4] the test system is Arabidopsis thaliana. Put plainly: HTPS (high throughput on soil) - Dicot - Post-emergence. The settings on record: N/A: not active; for Emax: read-out: HTPS - Dicot - Post Max effect; for HTPS - Dicot - Post ED50: from normalized green area. It is filed as in vivo. How it is done: as §2, with “area.” for “area. These experiments are conducted similarly except that either Arabidopsis thaliana or Eragrostis teff seeds were sowed (5-10 or 5-7, respectively), plant thinning out was not performed, compound dissolved into a final solution of 50% acetone, 49.9% DDW, compound application was done at 30 μL volume per well directly on sowed soil before plant emergence and data was collected 10 or 7 days after chemical application on dicot or monocot plants, respectively.”

A further assay has as its system POAAN. Put plainly: In-planta LTP pre-emergence, visual phenotype. The settings on record: monocot; for pest or weed control at 2000 g/ha: Poa annua, 432 h, read-out: IG Inhibited growth (% effect). It counts as in vivo, Poa annua. How it is done:
as §1

The next assay concerns Eragrostis teff. Put plainly: HTPS - Monocot - Pre-emergence. It is filed as in vivo. Particulars: N/A: not active; for Emax: read-out: HTPS - Monocot - Pre Max effect. How it is done: as §2
Assay [5] has as its system AMAPA. Put plainly: In-planta LTP post-emergence, visual phenotype. The settings on record: dicot. It is filed as in vivo, Amaranthus palmeri. The procedure:
A basic panel of eight weed species (Table 3) sowed in 4×4×7 cm plastic pots containing a garden mix (klasmann). Each specie was sowed in a separate pot. In each pot, 10-15 seeds were sowed according to the specie viability. Timing of application determined at a 1-2 true leaf stage. The plants grew for 30 days in a controlled greenhouse (26±2° C. day, 20±2° C. night). Hood irrigation (tap water+Shefer 5:3:8 8 mM) was given at a 50% water content by weight. Two days before application, the tested plants thinned down to three plants per pot. Compounds were soluble in water (DDW), and commercial herbicide control was soluble in formulation B (Table 4). Before application, 1% (v/v) crop oil and 0.02% (v/v) surfactant (Tergitol™ 15-5-7) were added to the solution. Application was conducted with an industrial sprayer (TeeJet 6502E nozzle) at a rate of 2 kg/ha and spray volume of […]. Plants were evaluated at 3 time points (4, 8, 12 days after application (DAA)). At each time point, visual phenotyping was recorded using a scale of 0-6 (0: no visible effect, 6: maximum effect). At 12 DAA, plants foliage was harvested, dried and weighed for dry weight analysis.
Post-emergence advanced dose response experiment included 4 species: SETVI, ECHCO, AMAPA, ABUTH (Tables 3, 5). Application was conducted at six rates between 0.6-0.0187 kg/ha and spray volume of […]. Plants were evaluated at 4 time points (6, 12, 18 and 26 DAA). At each time point, visual phenotyping was recorded using a scale of 0-6 (0: no visible effect, 6: maximum effect). At 26 DAA, plants foliage was harvested, dried and weighed for dry weight analysis.
Post-emergence advanced wide panel experiment included 24 weed species (Table 5). Application was conducted at 2 rates of 2 kg/ha and 0.25 kg/ha and spray volume of […]. Visual phenotyping was recorded at 4, 11, 17 and 20 DAA using a scale of 0-6 (0: no visible effect, 6: maximum effect). At 21 DAA, plants foliage was harvested, dried, and weighed for dry weight analysis. All experiments included an untreated control, a solvent control, and a positive control (commercial herbicide A.I.). Statistical analysis for visual phenotyping determined by a median value of ≥3.5 and Fisher test (pval≤0.05). Statistical analysis for dry weight determined by % inhibition ≥50 and T test (pval≤0.05), as well as Wilcox test (pval≤0.05).

The next assay relates to MATCA. Put plainly: In-planta LTP pre-emergence, visual phenotype. It counts as in vivo, Matricaria chamomilla. Particulars: dicot. The procedure:
as §1

The next assay has as its system ALOMY. Put plainly: In-planta LTP pre-emergence, visual phenotype. It is filed as in vivo, Alopecurus myosuroides. The settings on record: monocot. The procedure: as §1
[6] abbreviates: read-out: DE Disturbed emergence (% effect).
The mark [7] stands for this setting: read-out: IG Inhibited growth (% effect).

As for `CC(CN)Oc1cccc(C(=O)O)c1` (stereo not drawn) [Compound 102], the “in vitro Thermal Shift” value in assay [1] was 13 °C. Besides, the pest or weed control at 2000 g/ha worked out at 100% in the assay on SETVI (setting [6]), 100% in the assay on SETVI (setting [7]), 60% in the assay with AMAPA [2] and 60% in the assay with POAAN. Besides, the “HTPS - Dicot - Pre ED50” value in the assay on Arabidopsis thaliana [3] came to 127 g/ha. For the same molecule, the Emax is 100% in the assay on Arabidopsis thaliana [3], 92% in the assay with Arabidopsis thaliana [4] and 62% in the assay on Eragrostis teff. The “HTPS - Dicot - Post ED50” value in the assay with Arabidopsis thaliana [4] is recorded as 127 g/ha. The “HTPS - Monocot - Pre ED50” value in the assay on Eragrostis teff turned out to be 650 g/ha.

For the molecule `COC(=O)c1cccc(OCC(C)N)c1` (stereo not drawn) [Compound 110], in assay [1], the “in vitro Thermal Shift” value was 4 °C. Besides, the pest or weed control at 2000 g/ha with SETVI (setting [7]) was 80%. In the assay on Arabidopsis thaliana [3], the “HTPS - Dicot - Pre ED50” value stood at 80 g/ha and the Emax amounted to 100%. In addition, in the assay on Arabidopsis thaliana [4], the Emax amounted to 100% and the “HTPS - Dicot - Post ED50” value is 38 g/ha.

Turning to `CC(N)COc1cc(Cl)cc(C(=O)O)c1` (stereo not drawn) [Compound 109], in assay [1], the “in vitro Thermal Shift” value is 14 °C. In addition, the pest or weed control at 2000 g/ha in the assay on SETVI (setting [6]) worked out at 100%. Further, in the assay on AMAPA [2], the pest or weed control at 2000 g/ha was determined as 60%. In addition, in the assay on POAAN, the pest or weed control at 2000 g/ha amounted to 100% and the “DE Disturbed emergence (% effect)” value is “DE (100), %”. For the same molecule, the “BL Bleaching (% effect)” value with AMAPA [5] is “BL (40) %”. In the assay with Eragrostis teff, the “HTPS - Monocot - Pre ED50” value was 681 g/ha and the Emax was found to be 80%.

On to `CC(N)COc1ccc(F)c(C(=O)O)c1` (stereo not drawn) [Compound 108], for which the “in vitro Thermal Shift” value in assay [1] was found to be 16 °C. In addition, the pest or weed control at 2000 g/ha in the assay on SETVI (setting [6]) turned out to be 100%; in the assay on SETVI (setting [7]), 100%; in the assay on AMAPA [2] it was 60%; in the assay on POAAN, 80%. In addition, the “HTPS - Dicot - Pre ED50” value in the assay with Arabidopsis thaliana [3] stood at 31 g/ha. The Emax is 100% with Arabidopsis thaliana [3], 100% in the assay with Arabidopsis thaliana [4] and 80% with Eragrostis teff. Also, the “HTPS - Dicot - Post ED50” value in the assay on Arabidopsis thaliana [4] stood at 31 g/ha. In addition, in the assay with POAAN, the “DE Disturbed emergence (% effect)” value is recorded as “DE (80) %”. The “HTPS - Monocot - Pre ED50” value in the assay with Eragrostis teff is 290 g/ha.

For `CC(N)COc1cncc(C(=O)O)n1` (stereo not drawn) [Compound 148], the “in vitro Thermal Shift” value in [1] came to 12 °C. Further, the pest or weed control at 2000 g/ha worked out at 100% with SETVI (setting [6]), 100% with SETVI (setting [7]) and 40% in the assay on POAAN. The “DRD Disturbed root development (% effect)” value was “DRD^7 (100), %” in the assay with SETVI; “DRD (60) %” in the assay on ALOMY; “DRD (40) %” with POAAN. For the same molecule, the “DE Disturbed emergence (% effect)” value in the assay on MATCA was “DE (40) %”. In addition, the Emax in the assay with Arabidopsis thaliana [3] was found to be 28%; in the assay with Arabidopsis thaliana [4], 17%; in the assay with Eragrostis teff, 100%.
